The results in this text go back to PMC2763579 (Journal of medicinal chemistry, 2009).

The structures appear in SMILES notation. “Also recorded” adds a separate entry of the source.

The test system of the first experiment is HSP27 phosphorylation at Ser78 in HeLa cells. As to the kind of experiment: Drug-induced HSP27 Ser78 phosphorylation, Western blot. The format is cell-based, human. Particulars: absence of heat shock, 50 μg/ml 1 h.
On to `COC(=O)COc1cc(-c2oc3cc(O)cc(O)c3c(=O)c2O)ccc1O` [Compound D1], for which the “Enhancement of HSP27 phosphorylation (in words)” value is “did not activate HSP27 phosphorylation”.
On to `COc1cc(-c2oc3cc(O)cc(O)c3c(=O)c2O)ccc1O` [Compound D2], for which the “Enhancement of HSP27 phosphorylation (in words)” value is listed as “did not activate HSP27 phosphorylation”.
On the same count and under the same terms, next, `COc1cc(O)c2c(=O)c(O)c(-c3ccc(O)c(O)c3)oc2c1` [Compound D7]: “showed enhancement of HSP27 phosphorylation”; `COC(=O)COc1cc(O)c2c(=O)c(O)c(-c3ccc(O)c(O)c3)oc2c1` [Compound D10]: “showed enhancement of HSP27 phosphorylation”; `O=c1c(O)c(-c2ccc(O)c(O)c2)oc2cc(O)cc(O)c12` [Quercetin, reference compound]: “enhances HSP27 phosphorylation at Ser78”.

A further experiment concerns heat induced HSP70 expression in Jurkat cells. As to the kind of experiment: Inhibition of heat-induced HSP70 expression, Western blot. The class given is cell-based, human. Particulars: pre-heat treatment 50 μg/ml. (In general: A western blot detects proteins with antibodies after separation by electrophoresis.)
On to `O=C(O)COc1cc(O)c2c(=O)c(O)c(-c3ccc(O)c(O)c3)oc2c1` [Compound D9], for which the “Inhibition of HSP70 induction (in words)” value is listed as “does not inhibit HSP70; also recorded: showed no ability to inhibit HSP70 induction”.
